Results reported in PubChem BioAssay (NCI).
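Where inhibition never reached the appropriate level, the endpoint shown equals the highest concentration tested. Otherwise, values were interpolated linearly from a five-concentration, 48-hour dose response in 96-well plates. GI50 marks 50% less growth. TGI is the concentration that stops growth completely.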

Test system: MDA-MB-468 breast
Experiment: DTP human tumour cell line panel, 48 h

Compound: C#Cc1cccc(Nc2ncnc3cc(OCCOC)c(OCCOC)cc23)c1
- GI50: 0.124 µM
- TGI: 2.81 µM

Compound: NC(=O)c1cnc(N[C@@H]2CCCC[C@@H]2N)nc1Nc1cccc(-n2nccn2)c1
- GI50: 3.27 µM
- TGI: 11.5 µM

Compound: Cc1cn(C2CC(F)C(CO)O2)c(=O)[nH]c1=O (stereo unspecified)
- GI50: > 100 µM
- TGI: > 100 µM

Compound: COc1ccccc1-[n+]1cc(-c2ccc(-c3ccccc3)cc2)n2c1CCCCC2
- TGI: 0.838 µM

Compound: c1ccc(Cc2nc3ccc(Nc4ncnc5ccccc45)cc3[nH]2)cc1
- GI50: 6.65 µM
- TGI: 24.3 µM

Compound: C=C1[C@@H](C)[C@H]2[C@H](Cc3ccccc3)NC(=O)[C@]23OC(=O)/C=C/[C@H](O)CCC[C@@H](C)C/C=C/[C@H]3[C@@H]1O
- GI50: 1.86 µM
- TGI: > 100 µM

Compound: CC(=O)OC[C@H]1O[C@@H](n2ccc(=O)[nH]c2=O)[C@H](OC(C)=O)[C@@H]1OC(C)=O
- GI50: > 100 µM
- TGI: > 100 µM

Compound: COc1ccc(-c2cc(-c3ccc(OC)c(OC)c3)nc(SCCCC(=O)NO)n2)cc1
- GI50: 1.18 µM
- TGI: 3.44 µM

Compound: COc1ccc(-n2c(SCc3cc(OC)c(OC)c(OC)c3)nc3ccc(C)cc3c2=O)c(OC)c1
- GI50: 3.16 µM
- TGI: 9.38 µM

Compound: CCN(CC)c1ccc(/C=C\c2cc(C)c3cc(C)ccc3n2)cc1
- GI50: 3.02 µM
- TGI: 20.3 µM

Compound: C=C1C(=O)O[C@H]2[C@H]1CC/C(COC(=O)NCc1cc3ccccc3[nH]1)=C\CC[C@@]1(C)O[C@@H]21
- GI50: 1.06 µM
- TGI: 3.4 µM

Compound: CC(C)Oc1cc2c(cc1O)CC[C@@H]1[C@@H]2CC[C@]2(C)[C@@H](O)CC[C@@H]12
- GI50: 4.16 µM
- TGI: 25.6 µM

Compound: CC12CCC3C(CC=C4CC(O)CCC43C)C1C/C(=C\N1CCCC1)C2=O (stereo unspecified)
- GI50: 51.2 µM
- TGI: > 100 µM

Compound: COc1ccc(/C=C/C(=O)c2cc3c(N)c(C(=O)Nc4ccccc4Cl)sc3nc2C)cc1
- GI50: 0.279 µM
- TGI: 4.1 µM

Compound: C1CC[N-]CC1.C1CC[N-]CC1.C1CC[N-]CC1.C1CC[N-]CC1.[Cl][Rh][Cl]
- GI50: 2.17 µM
- TGI: 15.3 µM

Compound: N[C@@H](Cc1c[nH]c2ccccc12)C(=O)NC1CCN(C(=O)c2c[nH]c3ccccc23)CC1
- GI50: 54.2 µM
- TGI: > 100 µM

Compound: O=C(/C=C/c1cccnc1)NCCCCC1CCN(C(=O)c2ccccc2)CC1
- GI50: 27.5 µM
- TGI: > 100 µM

Compound: Oc1ccc(Cc2ccc(O)c3ncccc23)c2cccnc12
- GI50: 0.278 µM
- TGI: 0.902 µM

Compound: OCc1cn(Cc2cccc(Cl)c2)c2ccccc12
- GI50: 0.0134 µM
- TGI: 0.0333 µM

Compound: CC1=C([Se]CC(OC(=O)CC[Se]c2ccccc2)C(=O)NCCCCCC(=O)OCc2ccccc2)C(=O)c2ccccc2C1=O (stereo unspecified)
- GI50: 1.93 µM
- TGI: 4.63 µM

Compound: CN(C)CCCn1c2c(c3cnccc3c1=O)C(=O)c1ccccc1-2
- GI50: 0.352 µM
- TGI: 2.54 µM
